{"source": "paper PMC5218480", "about": "(PLoS ONE, 2017)", "test_system": "MV-4-11 cells", "assay": "Gene expression microarray analysis (Affymetrix PrimeView) and GSEA", "assay_type": "cell-based, human", "set-up": "RFU PODN (11730768_x_at) / Fold change /veh PODN (11730768_x_at) / RFU LINC00158 (11744669_a_at) / Fold change /veh LINC00158 (11744669_a_at) / RFU DUSP10 (11751237_a_at) / Fold change /veh DUSP10 (11751237_a_at) / RFU ID3 (11757404_x_at) / Fold change /veh ID3 (11757404_x_at) / RFU PLEKHG5 (11737974_s_at) / Fold change /veh PLEKHG5 (11737974_s_at) / RFU LRRC4B (11730491_at) / Fold change /veh LRRC4B (11730491_at) / RFU GIMAP4 (11747438_a_at) / Fold change /veh GIMAP4 (11747438_a_at) / RFU KRT8 (11758183_x_at) / Fold change /veh KRT8 (11758183_x_at) / RFU CNN1 (11734310_a_at) / Fold change /veh CNN1 (11734310_a_at) / RFU VPS37D (11726825_at) / Fold change /veh VPS37D (11726825_at) / RFU C10orf10 (11716522_x_at) / Fold change /veh C10orf10 (11716522_x_at) / RFU KIR2DL2 /// KIR2DL4 /// KIR2DL5A /// KIR2DL5B /// KIR2DS1 /// KIR2DS2 /// KIR2DS3 /// KIR2DS4 /// KIR3DL3 /// KIR3DL3 /// KIR3DS1 (11738374_at) / Fold change /veh KIR2DL2 /// KIR2DL4 /// KIR2DL5A /// KIR2DL5B /// KIR2DS1 /// KIR2DS2 /// KIR2DS3 /// KIR2DS4 /// KIR3DL3 /// KIR3DL3 /// KIR3DS1 (11738374_at) / RFU C1QL1 (11718748_at) / Fold change /veh C1QL1 (11718748_at) / RFU TMPRSS4 (11747572_a_at) / Fold change /veh TMPRSS4 (11747572_a_at) / RFU HAMP (11756126_x_at) / Fold change /veh HAMP (11756126_x_at) / RFU RNFT2 (11725882_a_at) / Fold change /veh RNFT2 (11725882_a_at) / RFU NR4A2 (11747474_a_at) / Fold change /veh NR4A2 (11747474_a_at) / RFU ABCC12 (11746883_a_at) / Fold change /veh ABCC12 (11746883_a_at) / RFU TMEM136 (11760407_x_at) / Fold change /veh TMEM136 (11760407_x_at) / RFU CLDN22 /// WWC2 (11732394_at) / Fold change /veh CLDN22 /// WWC2 (11732394_at) / RFU HLA-DPB1 (11760878_x_at) / Fold change /veh HLA-DPB1 (11760878_x_at) / RFU SPINT1 (11716480_a_at) / Fold change /veh SPINT1 (11716480_a_at) / RFU GAP43 (11754022_s_at) / Fold change /veh GAP43 (11754022_s_at) / RFU A4GNT (11735810_at) / Fold change /veh A4GNT (11735810_at) / RFU PRB3 (11715151_x_at) / Fold change /veh PRB3 (11715151_x_at) / RFU TUBB4B (11761932_at) / Fold change /veh TUBB4B (11761932_at) / RFU CAPN14 (11732068_a_at) / Fold change /veh CAPN14 (11732068_a_at) / RFU TMCC2 (11721928_a_at) / Fold change /veh TMCC2 (11721928_a_at) / RFU IRGQ (11745062_a_at) / Fold change /veh IRGQ (11745062_a_at) / RFU FAM174B (11720279_a_at) / Fold change /veh FAM174B (11720279_a_at) / RFU TMPRSS4 (11748680_a_at) / Fold change /veh TMPRSS4 (11748680_a_at) / RFU FAM212B (11763350_a_at) / Fold change /veh FAM212B (11763350_a_at) / RFU PLEKHG5 (11743358_a_at) / Fold change /veh PLEKHG5 (11743358_a_at) / RFU ZSCAN30 (11745921_a_at) / Fold change /veh ZSCAN30 (11745921_a_at) / RFU CMKLR1 (11741424_a_at) / Fold change /veh CMKLR1 (11741424_a_at) / RFU LOC101060620 /// MAPK8IP1 (11723275_at) / Fold change /veh LOC101060620 /// MAPK8IP1 (11723275_at) / RFU SPTSSB (11747773_x_at) / Fold change /veh SPTSSB (11747773_x_at) / RFU PRSS12 (11739890_at) / Fold change /veh PRSS12 (11739890_at) / RFU BIN1 (11741810_x_at) / Fold change /veh BIN1 (11741810_x_at) / RFU WNT11 (11732464_a_at) / Fold change /veh WNT11 (11732464_a_at) / RFU C10orf10 (11716521_a_at) / Fold change /veh C10orf10 (11716521_a_at) / RFU C5orf56 (11738089_at) / Fold change /veh C5orf56 (11738089_at) / RFU CYB561 (11721691_x_at) / Fold change /veh CYB561 (11721691_x_at) / RFU ANKRD19P (11752326_a_at) / Fold change /veh ANKRD19P (11752326_a_at) / RFU OR2T12 /// OR2T33 /// OR2T8 (11738714_s_at) / Fold change /veh OR2T12 /// OR2T33 /// OR2T8 (11738714_s_at) / RFU VCAN (11748164_a_at) / Fold change /veh VCAN (11748164_a_at) / RFU JSRP1 (11732532_at) / Fold change /veh JSRP1 (11732532_at) / RFU KRTAP10-11 (11738290_x_at) / Fold change /veh KRTAP10-11 (11738290_x_at) / RFU MYO3A (11730013_a_at) / Fold change /veh MYO3A (11730013_a_at) / RFU EBF3 (11725865_a_at) / Fold change /veh EBF3 (11725865_a_at) / RFU CAMK2N1 (11719241_x_at) / Fold change /veh CAMK2N1 (11719241_x_at) / RFU C5orf56 (11738088_a_at) / Fold change /veh C5orf56 (11738088_a_at) / RFU OLFML3 (11715873_a_at) / Fold change /veh OLFML3 (11715873_a_at) / RFU LOC100653217 /// NTM (11731650_a_at) / Fold change /veh LOC100653217 /// NTM (11731650_a_at) / RFU MAPK11 (11762145_a_at) / Fold change /veh MAPK11 (11762145_a_at) / RFU FIZ1 (11724087_x_at) / Fold change /veh FIZ1 (11724087_x_at) / RFU OASL (11726364_x_at) / Fold change /veh OASL (11726364_x_at) / RFU SOX15 (11748057_x_at) / Fold change /veh SOX15 (11748057_x_at) / RFU CD79A (11719716_a_at) / Fold change /veh CD79A (11719716_a_at) / RFU HIST1H1D (11736915_at) / Fold change /veh HIST1H1D (11736915_at) / RFU CASKIN2 (11723855_a_at) / Fold change /veh CASKIN2 (11723855_a_at) / RFU LOC730098 (11760151_x_at) / Fold change /veh LOC730098 (11760151_x_at) / RFU OR4N2 (11742367_at) / Fold change /veh OR4N2 (11742367_at) / RFU PRRT2 (11749266_a_at) / Fold change /veh PRRT2 (11749266_a_at) / RFU SNX32 (11753110_a_at) / Fold change /veh SNX32 (11753110_a_at) / RFU CDHR5 (11726645_a_at) / Fold change /veh CDHR5 (11726645_a_at) / RFU RCAN1 (11760418_a_at) / Fold change /veh RCAN1 (11760418_a_at) / RFU FAM167A (11723789_a_at) / Fold change /veh FAM167A (11723789_a_at) / RFU FAM26E (11764081_at) / Fold change /veh FAM26E (11764081_at) / RFU ISYNA1 (11749810_s_at) / Fold change /veh ISYNA1 (11749810_s_at) / RFU ACY1 (11761880_at) / Fold change /veh ACY1 (11761880_at) / RFU 11764098_at / Fold change /veh 11764098_at / RFU SAMD14 (11745864_x_at) / Fold change /veh SAMD14 (11745864_x_at) / RFU NPB (11741838_a_at) / Fold change /veh NPB (11741838_a_at) / RFU TMPRSS6 (11731388_a_at) / Fold change /veh TMPRSS6 (11731388_a_at) / RFU KRTAP10-2 (11738614_at) / Fold change /veh KRTAP10-2 (11738614_at) / RFU ARHGAP8 /// PRR5-ARHGAP8 (11727945_x_at) / Fold change /veh ARHGAP8 /// PRR5-ARHGAP8 (11727945_x_at) / RFU KRTAP5-7 /// NADSYN1 (11734609_at) / Fold change /veh KRTAP5-7 /// NADSYN1 (11734609_at) / RFU RASL12 (11751679_a_at) / Fold change /veh RASL12 (11751679_a_at) / RFU CDKN2B (11736163_a_at) / Fold change /veh CDKN2B (11736163_a_at) / RFU PRF1 (11729649_at) / Fold change /veh PRF1 (11729649_at) / RFU, ZNF638 /// ZNF638-IT1 / Fold change vs veh, ZNF638 /// ZNF638-IT1 / RFU, PANK3 / Fold change vs veh, PANK3 / RFU, SH3YL1 / Fold change vs veh, SH3YL1 / RFU, ZEB2 / Fold change vs veh, ZEB2 / RFU, NRIP1 / Fold change vs veh, NRIP1 / RFU, PTTG1IP / Fold change vs veh, PTTG1IP / RFU, CAPN2 / Fold change vs veh, CAPN2 / RFU, MED14 / Fold change vs veh, MED14 / RFU, SNORA58 / Fold change vs veh, SNORA58 / RFU, C1orf63 / Fold change vs veh, C1orf63 / RFU, LRRFIP1 / Fold change vs veh, LRRFIP1 / RFU, NDUFAF7 / Fold change vs veh, NDUFAF7 / RFU, SLC12A2 / Fold change vs veh, SLC12A2 / RFU, IBTK / Fold change vs veh, IBTK / RFU, ESF1 / Fold change vs veh, ESF1 / Fold change vs veh, TMEM50B / RFU, TAOK1 / Fold change vs veh, TAOK1 / RFU, ACBD3 / Fold change vs veh, ACBD3 / RFU, TMA16 / Fold change vs veh, TMA16 / RFU, RWDD3 / Fold change vs veh, RWDD3 / RFU, BCAT1 / Fold change vs veh, BCAT1 / RFU, EDEM3 / Fold change vs veh, EDEM3 / RFU, TMEM33 / Fold change vs veh, TMEM33 / RFU, WDR75 / Fold change vs veh, WDR75 / RFU, AHCTF1 / Fold change vs veh, AHCTF1 / RFU, TFRC / Fold change vs veh, TFRC / RFU, ZDHHC17 / Fold change vs veh, ZDHHC17 / RFU, NOM1 / Fold change vs veh, NOM1 / RFU, ARL8B / Fold change vs veh, ARL8B / RFU, ZBTB11 / Fold change vs veh, ZBTB11 / RFU, TAMM41 / Fold change vs veh, TAMM41 / RFU, KIAA1704 /// LOC100996395 / Fold change vs veh, KIAA1704 /// LOC100996395 / RFU, ING1 / Fold change vs veh, ING1 / RFU, TRMT61B / Fold change vs veh, TRMT61B / RFU, FUBP3 / Fold change vs veh, FUBP3 / RFU, TP53 / Fold change vs veh, TP53 / RFU, TNKS2 / Fold change vs veh, TNKS2 / RFU, ZFP14 / Fold change vs veh, ZFP14 / RFU, ACTR2 / Fold change vs veh, ACTR2 / RFU, PPP3R1 / Fold change vs veh, PPP3R1 / RFU, PIK3R1 / Fold change vs veh, PIK3R1 / RFU, HNRNPA1 / Fold change vs veh, HNRNPA1 / RFU, RNF170 / Fold change vs veh, RNF170 / RFU, ZNF28 / Fold change vs veh, ZNF28 / RFU, RNGTT / Fold change vs veh, RNGTT / RFU, OGT / Fold change vs veh, OGT / RFU, BRD1 / Fold change vs veh, BRD1 / RFU, MARS / Fold change vs veh, MARS / RFU, ZNF655 / Fold change vs veh, ZNF655 / RFU, FAHD1 / Fold change vs veh, FAHD1 / RFU, BDP1 / Fold change vs veh, BDP1 / RFU, LRRCC1 / Fold change vs veh, LRRCC1 / RFU, ARID1A / Fold change vs veh, ARID1A / RFU, ZNF146 / Fold change vs veh, ZNF146 / RFU, ZNF330 / Fold change vs veh, ZNF330 / RFU, GPN3 / Fold change vs veh, GPN3 / RFU, C9orf123 / Fold change vs veh, C9orf123 / RFU, N4BP2L2 / Fold change vs veh, N4BP2L2 / RFU, ARFIP1 / Fold change vs veh, ARFIP1 / RFU, FAM179B / Fold change vs veh, FAM179B / RFU, BCL10 / Fold change vs veh, BCL10 / RFU, UHRF1BP1L / Fold change vs veh, UHRF1BP1L / RFU, BET1 / Fold change vs veh, BET1 / RFU, CNOT2 / Fold change vs veh, CNOT2 / RFU, ZNF268 / Fold change vs veh, ZNF268 / Fold change vs veh, ZNF507 / RFU, DGCR2 / Fold change vs veh, DGCR2 / RFU, WDSUB1 / Fold change vs veh, WDSUB1 / Fold change vs veh, HSP90B1 /// MIR3652 / RFU, ADSS / Fold change vs veh, ADSS / RFU, GK / Fold change vs veh, GK / RFU, ZNF148 / Fold change vs veh, ZNF148 / RFU, TAF9 / Fold change vs veh, TAF9 / RFU, SLC1A5 / Fold change vs veh, SLC1A5 / RFU, SLMO2 / Fold change vs veh, SLMO2 / RFU, ABCC4 / Fold change vs veh, ABCC4 / RFU, LOC101060439 /// RAP1B / Fold change vs veh, LOC101060439 /// RAP1B / RFU, RFX7 / Fold change vs veh, RFX7 / RFU, GTPBP10 / Fold change vs veh, GTPBP10 / RFU, CNEP1R1 / Fold change vs veh, CNEP1R1 / RFU, BIVM-ERCC5 /// ERCC5 / Fold change vs veh, BIVM-ERCC5 /// ERCC5 / RFU, ILF3 / Fold change vs veh, ILF3 / RFU 11762660_at / Fold change /veh 11762660_at / RFU VCAN (11757783_s_at) / Fold change /veh VCAN (11757783_s_at) / RFU DDX43 (11728927_at) / Fold change /veh DDX43 (11728927_at) / RFU KRT8 (11758188_x_at) / Fold change /veh KRT8 (11758188_x_at) / RFU NKD1 (11759106_at) / Fold change /veh NKD1 (11759106_at) / RFU SRD5A1 (11742802_a_at) / Fold change /veh SRD5A1 (11742802_a_at) / RFU TPSAB1 /// TPSB2 (11721975_s_at) / Fold change /veh TPSAB1 /// TPSB2 (11721975_s_at) / RFU GSTM3 (11746129_a_at) / Fold change /veh GSTM3 (11746129_a_at) / RFU IL23R (11737362_x_at) / Fold change /veh IL23R (11737362_x_at) / RFU TMEM51 (11727254_a_at) / Fold change /veh TMEM51 (11727254_a_at) / RFU PIWIL2 (11732686_x_at) / Fold change /veh PIWIL2 (11732686_x_at) / RFU ORM1 (11744905_x_at) / Fold change /veh ORM1 (11744905_x_at) / RFU CCDC152 (11743942_at) / Fold change /veh CCDC152 (11743942_at) / RFU ECM1 (11717891_a_at) / Fold change /veh ECM1 (11717891_a_at) / RFU IL23R (11748794_a_at) / Fold change /veh IL23R (11748794_a_at) / RFU TNFAIP8L3 (11732012_x_at) / Fold change /veh TNFAIP8L3 (11732012_x_at) / RFU MBOAT4 (11741988_at) / Fold change /veh MBOAT4 (11741988_at) / RFU 11764193_at / Fold change /veh 11764193_at / RFU TMEM53 (11763286_at) / Fold change /veh TMEM53 (11763286_at) / RFU MAGEB2 (11727129_at) / Fold change /veh MAGEB2 (11727129_at) / RFU TMEM200A (11744735_a_at) / Fold change /veh TMEM200A (11744735_a_at) / RFU CCDC152 (11751479_a_at) / Fold change /veh CCDC152 (11751479_a_at) / RFU FAM211A (11726209_a_at) / Fold change /veh FAM211A (11726209_a_at) / RFU RGS16 (11746705_a_at) / Fold change /veh RGS16 (11746705_a_at) / RFU VCAN (11755009_s_at) / Fold change /veh VCAN (11755009_s_at) / RFU RHOB (11743442_s_at) / Fold change /veh RHOB (11743442_s_at) / RFU RGS16 (11720943_a_at) / Fold change /veh RGS16 (11720943_a_at) / RFU RGS16 (11720944_at) / Fold change /veh RGS16 (11720944_at) / RFU, VPS4B / Fold change vs veh, VPS4B / RFU, CREB1 / Fold change vs veh, CREB1 / RFU, DNAJC13 / Fold change vs veh, DNAJC13 / RFU, GNAQ / Fold change vs veh, GNAQ / RFU, CDK5R1 / Fold change vs veh, CDK5R1 / RFU, ZRANB3 / Fold change vs veh, ZRANB3 / RFU, CUL4A / Fold change vs veh, CUL4A / RFU, CCNY / Fold change vs veh, CCNY / RFU, UFL1 / Fold change vs veh, UFL1 / RFU, COG3 / Fold change vs veh, COG3 / RFU, DIAPH2 / Fold change vs veh, DIAPH2 / RFU, SKA2 / Fold change vs veh, SKA2 / RFU, AFF3 / Fold change vs veh, AFF3 / RFU, LMF1 / Fold change vs veh, LMF1 / RFU, IPO11 / Fold change vs veh, IPO11 / RFU, DFFB / Fold change vs veh, DFFB / RFU, FOXP1 / Fold change vs veh, FOXP1 / RFU, CARD8 / Fold change vs veh, CARD8 / RFU, STRN3 / Fold change vs veh, STRN3 / RFU, ADK / Fold change vs veh, ADK / RFU, RASSF2 / Fold change vs veh, RASSF2 / RFU, WIPF1 / Fold change vs veh, WIPF1 / RFU, LARP1B / Fold change vs veh, LARP1B / RFU, RASA1 / Fold change vs veh, RASA1 / RFU, RB1 / Fold change vs veh, RB1 / RFU, PPFIA1 / Fold change vs veh, PPFIA1 / RFU, MAT2A / Fold change vs veh, MAT2A / RFU, CCT5 / Fold change vs veh, CCT5 / RFU, WDR92 / Fold change vs veh, WDR92 / RFU, CUX1 / Fold change vs veh, CUX1 / RFU, TTC7A / Fold change vs veh, TTC7A / RFU, TMEM135 / Fold change vs veh, TMEM135 / RFU, DEPTOR / Fold change vs veh, DEPTOR / RFU, CPM / Fold change vs veh, CPM / RFU, DNAJB6 / Fold change vs veh, DNAJB6 / RFU, CACNA2D3 / Fold change vs veh, CACNA2D3 / RFU, DTX4 / Fold change vs veh, DTX4 / RFU, TFCP2 / Fold change vs veh, TFCP2 / RFU, GMCL1 /// GMCL1P1 / Fold change vs veh, GMCL1 /// GMCL1P1 / RFU, AEBP2 / Fold change vs veh, AEBP2 / RFU, SNHG1 /// SNORD22 /// SNORD25 /// SNORD26 /// SNORD27 /// SNORD28 /// SNORD29 /// SNORD31 / Fold change vs veh, SNHG1 /// SNORD22 /// SNORD25 /// SNORD26 /// SNORD27 /// SNORD28 /// SNORD29 /// SNORD31 / Fold change (Aza/veh), C12orf56 (ProbeSet 11735607_a_at) / Fold change (ACY-1035/veh), C12orf56 (ProbeSet 11735607_a_at) / Fold change (Aza/veh), FGFR1OP (ProbeSet 11751329_s_at) / Fold change (ACY-1035/veh), FGFR1OP (ProbeSet 11751329_s_at) / Fold change (Aza/veh), VPS36 (ProbeSet 11739960_a_at) / Fold change (ACY-1035/veh), VPS36 (ProbeSet 11739960_a_at) / RFU SYPL1 (11715823_x_at) / Fold change /veh SYPL1 (11715823_x_at) / RFU IGFBP7 (11715501_s_at) / Fold change /veh IGFBP7 (11715501_s_at) / RFU REEP3 (11722064_at) / Fold change /veh REEP3 (11722064_at) / RFU IGLL1 (11728026_x_at) / Fold change /veh IGLL1 (11728026_x_at): dose or concentration left out as unconfirmed", "conditions": "ProbeSet 11752001_a_at; LIST D", "data": [{"compound": "Nc1ccc(-c2cccs2)cc1NC(=O)c1ccc2c(c1)cc(C1CC1)n2CCN1CCOCC1", "note": "[ACY-1035]", "values": [{"measurement": "RFU, CUL4A", "value": 438.04, "unit": "RFU"}]}]}
